The values that follow come from PMC3391261, “Characteristic Features of Kynurenine Aminotransferase Allosterically Regulated by (Alpha)-Ketoglutarate in Cooperation with Kynurenine” (PLoS ONE, 2012).

Where two headings read alike, the source gives them in different places.

Data set [1] deals with T1, PhKAT (Pyrococcus horikoshii, UniProt O57946). Kind of data set: Spectrophotometric titration of PhKAT with PLP (absorbance change at 360 nm, 2-site binding model with hill slopes). Further details: species or system Pyrococcus horikoshii OT3. Particulars: 25°C. On the procedure:
PhKAT was added to a 20 µM (final concentration) PLP solution in a final volume of 500 µL of 50 mM HEPES–NaOH buffer (pH 7.5) containing 100 mM NaCl. Titration of PhKAT with PLP was monitored by absorption spectroscopy. Aliquots of PLP (1, 2, 4, 8, 16, 32, and 64 µM) were added to the cuvette containing PhKAT at 25°C. Spectra were recorded after the addition of PLP, and the PLP-binding constant (K d) was calculated from the difference in absorbance at 360 nm, and the PLP-binding curve for PhKAT was obtained by the 2-site binding model with variable slopes using prism5.

Data set [2] concerns the target T1, PhKAT. Put plainly: Isothermal titration calorimetry for cofactor and substrate binding. Further details: species or system Pyrococcus horikoshii OT3. Particulars: PLP binding to PhKAT; judged from shape of binding curve. The source says: To avoid air bubbles, we degassed solutions under vacuum before use. […] Power peaks were integrated, and the resultant reaction […] were plotted against the molar cofactor and/or substrate/protein ratios and fitted using the “sequential binding sites” model according to the manufacturer's instructions with origin version 5.0 (MicroCal Software), thus yielding the dissociation constant K d.
On the technique in general: ITC needs no label: the signal is the heat of the interaction.

Data set [3] addresses T1, PhKAT. Kind of data set: KAT transaminase kinetics, KYNA production from KYN monitored at 332 nm. The note with it: 100 µM KYN; keto acid as amino acceptor. On the procedure: KYNA production was monitored spectrophotometrically using a U-2810 UV–Vis spectrophotometer (Hitachi).
The transaminase abilities of KAT were assayed by measuring the rate of the KYNA production. […] KYNA production was monitored by the increase in A332 at 25°C. The quantities of KYNA were determined spectroscopically with an extinction coefficient of 9.8 mM^−1⋅cm^−1 at 332 nm.

Substrate in data set [4]: CCC(=O)C(=O)O
Put plainly: purified protein, by the assay type. The note with it: other: 100 µM KYN; keto acid as amino acceptor; pH 7.5; 25.0 °C.
Method: (§1) PLP-dependent KAT activity was assayed in 500 µL of 50 mM HEPES–NaOH buffer (pH 7.5) containing 100 mM NaCl, 10 µM PhKAT, 15 µM PLP, 20 µM KYN, and 64 µM 2OG. Assays were performed at room temperature (25°C), and the reaction was initiated by the addition of 2OG. KYNA production was monitored spectrophotometrically using a U-2810 UV–Vis spectrophotometer (Hitachi).
(§2) The transaminase abilities of KAT were assayed by measuring the rate of the KYNA production. In a total volume of 500 µL, the reaction mixture contained 10 µM PhKAT (dimer: 5 µM); 12 µM PLP; 0.08, 0.1, 0.4, 0.8, 1, 1.2, 2, 4, 6, 8, 12, 16, 20 and 24 µM 2OG; 0.02, 0.08, 0.1, 0.4, 0.8, 1, 1.2, 2, 4, 6, 8, 12, 16, 20 and 24 µM OXA; 50, or 100 µM KYN; 50 mM HEPES–NaOH buffer (pH 7.5); 100 mM NaCl; 0.4, 0.8, 1, 4, 8, 12 and 16 µM α-KMB, and/or 0.4, 0.8, 1, 4, 8, 12, 16 and 20 µM α-KBA. KYNA production was monitored by the increase in A332 at 25°C. The quantities of KYNA were determined spectroscopically with an extinction coefficient of 9.8 mM^−1⋅cm^−1 at 332 nm.

Substrate in data set [5]: CSCCC(=O)C(=O)O
Put plainly: purified protein, by the assay type. The note with it: other: 100 µM KYN; keto acid as amino acceptor; pH 7.5; 25.0 °C.
Method: as §1, §2

Data set [6] concerns the molecule itself. Put plainly: crystal structure; co-crystals of PhKAT with PLP (1:1), PLP and 2OG (1:1:1 or 1:1:2), sitting-drop vapor diffusion at 4°C; space group C2, two chains in the asymmetric unit.

Take `Cc1ncc(COP(=O)(O)O)c(C=O)c1O` [PLP, Pyridoxal phosphate]: the Kd was 25.5 µM at PhKAT [1] (10 µM PhKAT, pH 7.5, read-out: Kd1 (dissociation constant for PLP, first binding site)); 1.77 µM at PhKAT [1] (10 µM PhKAT, pH 7.5, read-out: Kd2 (dissociation constant for PLP, second binding site)); 9.65 µM on PhKAT [1] (20 µM PhKAT, pH 7.5, read-out: Kd1 (dissociation constant for PLP, first binding site)); 1.92 µM at PhKAT [1] (20 µM PhKAT, pH 7.5, read-out: Kd2 (dissociation constant for PLP, second binding site)). Also, the “dissociation constant (apparent) of second binding site in PhKAT” value at PhKAT [2] is listed as “approximately femtomole order”.

Turning to `CSCCC(=O)C(=O)O` [α-KMB, α-keto-γ-(methylthio) butyric acid], the “H-value (allosteric sigmoidal model)” value at PhKAT [3] is recorded as 3.57.

With `CCC(=O)C(=O)O` [α-KBA, 2-ketobutyric acid], the “H-value (allosteric sigmoidal model)” value at PhKAT [3] is reported as 1.79.

B1: PhKAT (Pyrococcus horikoshii OT3) (protein)
chain: MHEDVQLNIYVHSQEGIGMEENIKSMLGDVERFFSKKALEMRASEVRELLKLVETSDIISLAGGLPNPKTFPKEIIRDILVEIMEKYADKALQYGTTKGFTPLRETLMKWLGKRYGISQDNDIMITSGSQQALDLIGRVFLNPGDIVVVEAPTYLAALQAFNFYEPQYIQIPLDDEGMKVEILEEKLKELKSQGKKVKVVYTVPTFQNPAGVTMNEDRRKYLLELASEYDFIVVEDDPYGELRYSGNPEKKIKALDNEGRVIYLGTFSKILAPGFRIGWMVGDPGIIRKMEIAKQSTDLCTNVFGQVVAWRYVDGGYLEKHIPEIRKFYKPRRDAMLEALEEFMPEGVKWTKPEGGMFIWVTLPDGIDSKKMLERAIKKGVAYVPGEAFYAHRDVKNTMRLNFTYVDEDKIMEGIKRLAETIKEELKA
Turning to B1, the results for the Km in data set [4] and in data set [5] were 1.73 µM and 2.41 µM, respectively.

B2: Kynurenine aminotransferase from Pyrococcus horikoshii OT3 (enzyme, UniProt O57946 1-428, looked up)
chain: B1 chain
modifications: PLP in a Schiff-base link with Lys269
notes: Kynurenine aminotransferase (PhKAT) of Pyrococcus horikoshii OT3, 428 residues; residues 25-428 seen in the crystal structures, residues 1-24 and the N-terminal His-tag disordered; also called PhKAT; KAT; source: E. coli BL21-CodonPlus (DE3), pET28a-PhKAT, purified (His TALON cartridge); not shown: His6, N-terminal, kept
As to B2, the “stoichiometry N” value in data set [6] came out at 2.

In general, Km refers to the concentration of substrate that gives half-maximal velocity. As a reminder, the stoichiometry N is the number of molecules, sites or subunits per partner or assembly.
